Where two headings read alike, the source gives them in different places.
Columns and labels:
[1] = molecular target: T1, GCN2 (Homo sapiens, UniProt Q9P2K8); test: GCN2 enzyme assay (TR-FRET Lanthascreen, GFP-eIF2alpha phosphorylation); type: biochemical; conditions: 10 μM ATP, 80 nM GFP-eIF2a, 30 nM GCN2
Procedure, shortened: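 Phosphorylation of GFP-eIF2alpha (80 nM) by GCN2 run at room temperature with 10 μM ATP. After EDTA quench, product quantified by Lanthascreen TR-FRET (antibody–GFP complex, 340 nm excitation).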
Target sequence in this assay (Q9P2K8 whole entry, species assumed): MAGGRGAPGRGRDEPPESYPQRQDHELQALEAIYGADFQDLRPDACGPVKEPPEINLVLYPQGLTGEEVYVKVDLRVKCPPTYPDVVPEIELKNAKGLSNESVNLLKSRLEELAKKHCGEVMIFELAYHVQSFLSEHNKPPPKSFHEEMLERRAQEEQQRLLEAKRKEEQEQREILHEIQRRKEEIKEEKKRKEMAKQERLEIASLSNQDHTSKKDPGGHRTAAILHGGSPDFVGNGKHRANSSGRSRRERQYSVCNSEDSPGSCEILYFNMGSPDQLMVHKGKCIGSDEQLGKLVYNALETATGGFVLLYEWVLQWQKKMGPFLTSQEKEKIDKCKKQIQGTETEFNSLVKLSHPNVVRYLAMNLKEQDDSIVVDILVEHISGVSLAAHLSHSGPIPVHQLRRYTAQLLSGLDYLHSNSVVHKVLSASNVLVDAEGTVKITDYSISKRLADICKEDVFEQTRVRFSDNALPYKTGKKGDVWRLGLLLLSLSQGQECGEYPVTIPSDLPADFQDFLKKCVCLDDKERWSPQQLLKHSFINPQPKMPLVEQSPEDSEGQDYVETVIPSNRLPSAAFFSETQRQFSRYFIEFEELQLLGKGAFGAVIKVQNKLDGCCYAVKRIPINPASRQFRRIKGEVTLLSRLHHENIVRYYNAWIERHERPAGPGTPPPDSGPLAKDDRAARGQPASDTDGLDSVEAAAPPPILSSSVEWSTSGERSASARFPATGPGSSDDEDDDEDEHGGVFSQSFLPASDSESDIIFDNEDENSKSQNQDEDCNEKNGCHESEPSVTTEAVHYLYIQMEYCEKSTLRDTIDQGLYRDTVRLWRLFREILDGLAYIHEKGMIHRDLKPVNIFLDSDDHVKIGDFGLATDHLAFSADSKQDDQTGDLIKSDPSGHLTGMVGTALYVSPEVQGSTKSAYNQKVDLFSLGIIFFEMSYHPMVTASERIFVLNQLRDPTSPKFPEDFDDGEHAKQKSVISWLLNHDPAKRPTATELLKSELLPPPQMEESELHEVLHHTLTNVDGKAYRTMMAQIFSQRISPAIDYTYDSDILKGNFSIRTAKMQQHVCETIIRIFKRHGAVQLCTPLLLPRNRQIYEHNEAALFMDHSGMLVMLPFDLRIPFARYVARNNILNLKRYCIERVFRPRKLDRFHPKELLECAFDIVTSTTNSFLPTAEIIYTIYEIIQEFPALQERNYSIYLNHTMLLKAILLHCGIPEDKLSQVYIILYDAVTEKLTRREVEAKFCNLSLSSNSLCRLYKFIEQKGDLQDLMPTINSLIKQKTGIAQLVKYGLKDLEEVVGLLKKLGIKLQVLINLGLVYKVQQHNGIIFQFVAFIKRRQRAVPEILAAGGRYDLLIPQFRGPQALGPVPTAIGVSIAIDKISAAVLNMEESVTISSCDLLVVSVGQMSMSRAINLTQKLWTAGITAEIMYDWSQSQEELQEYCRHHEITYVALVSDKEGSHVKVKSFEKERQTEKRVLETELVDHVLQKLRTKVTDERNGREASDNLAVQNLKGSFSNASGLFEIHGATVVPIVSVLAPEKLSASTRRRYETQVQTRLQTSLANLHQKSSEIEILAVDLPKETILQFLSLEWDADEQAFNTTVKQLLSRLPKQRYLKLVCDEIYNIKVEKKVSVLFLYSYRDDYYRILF

[2] = molecular target: GSK3α(h) (Homo sapiens, UniProt P49840); test: GSK3α radiometric kinase assay (33P-ATP, phospho GS2 peptide); type: biochemical; conditions: read-out: IC50 GSK3α (enzyme assay)
Experimental: GSK3α(h) is incubated with 8 mM MOPS pH 7,0, 0,2 mM EDTA, 20 μM
[…](p)EDEEE (phosphor GS2 peptide), 10 mM Mg-acetate and [gamma-33P-ATP](specific activity approx. 500 cpm/Pmol, concentration as required). The reaction is initiated by the addition of the MgATP. After incubation for 40 minutes at the room temperature, the Reaction is stopped by the addition of 3% phosphoric acid solution. 10 μL of reaction is then spotted onto a P30 filtermat and washed three times for 5 minutes in 50 mM phosphoric acid and once in methanol prior to drying and scintillation counting.

[3] = molecular target: T1, GCN2; test: Cellular assay of GCN2 activity (phospho-eIF2alpha immunocytochemistry after tryptophanol); type: cell-based; parameters: endogenous in cells; host or cells: U2OS; conditions: Human U2OS cells, 2 h compound, 600 μM tryptophanol 30 min
Experimental: Cellular Assay for the Determination of Compound Activities
Human U2OS cells (2000 cells/well) are seeded into 384-well plates and incubated for 20 hours.
The next day, the cells are treated with the test compounds and incubated for 2 hours. Then, tryptophanol, at a final concentration of 600 μM, is added to the cells and those are incubated for 30 minutes.
The analysis of cellular GCN2 activities is done by immunocytochemistry.
Briefly, cells are fixated on the well surfaces by formaldehyde and permeabilised with Triton X-100.
The analysis and quantification of phosphorylated GCN2 is done by scanning the plates in the Acumen Explorer system (TTPLabtech). The obtained data are normalised against the untreated control wells (DMSO only) and expressed as % effect values. The determination of IC50 values is done by using the Graph Pad Prism software.
Target sequence in this assay (Q9P2K8 whole entry): as the sequence (Q9P2K8 whole entry, species assumed) above

Sequence of GSK3α(h) (P49840 whole entry): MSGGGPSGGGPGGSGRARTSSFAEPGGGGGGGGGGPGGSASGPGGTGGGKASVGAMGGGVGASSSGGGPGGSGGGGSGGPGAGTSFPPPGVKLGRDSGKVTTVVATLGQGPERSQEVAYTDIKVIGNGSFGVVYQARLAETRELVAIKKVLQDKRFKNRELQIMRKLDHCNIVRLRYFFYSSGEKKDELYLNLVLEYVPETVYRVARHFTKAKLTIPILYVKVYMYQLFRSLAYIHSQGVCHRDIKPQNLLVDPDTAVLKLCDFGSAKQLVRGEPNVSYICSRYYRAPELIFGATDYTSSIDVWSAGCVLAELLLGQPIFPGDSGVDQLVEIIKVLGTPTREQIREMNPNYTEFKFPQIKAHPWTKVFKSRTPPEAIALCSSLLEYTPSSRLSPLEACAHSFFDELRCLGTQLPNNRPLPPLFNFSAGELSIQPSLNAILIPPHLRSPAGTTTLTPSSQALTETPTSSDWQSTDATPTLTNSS

Question: Which results are given for CN(C)CCC(=O)N1CC[C@@H](Nc2ncc3nnn(-c4ccc(-c5cnn(C)c5)cc4)c3n2)C1 [A130, 3-dimethylamino-1-((R)-3-{3-[4-(1-methyl-1H-pyrazol-4-yl)-phenyl]-3H-[1,2,3]triazolo[4,5-d]pyrimidin-5-ylamino}-pyrrolidin-1-yl)-propan-1-one]?
Answer: IC50 [1]: < 1 µM; IC50 [2]: < 1 µM; IC50 [3]: 5 to 10 µM

Question: Which results are given for NC(=O)[C@H]1CC[C@@H](Nc2ncc3nnn(-c4ccc(-c5cnn(CCO)c5)cc4)c3n2)C1 [A258, (1S,3R)-3-(3-{4-[1-(2-hydroxy-ethyl)-1H-pyrazol-4-yl]-phenyl}-3H-[1,2,3]triazolo[4,5-d]pyrimidin-5-ylamino)-cyclopentanecarboxylic acid amide]?
Answer: IC50 [1]: < 1 µM; IC50 [2]: < 1 µM; IC50 [3]: 1 to 5 µM

Question: For CN1CCN(CCC(=O)N2CC[C@@H](Nc3ncc4nnn(-c5ccc(-c6cnn(C)c6)cc5)c4n3)C2)CC1 [A131, 3-(4-methyl-piperazin-1-yl)-1-((R)-3-{3-[4-(1-methyl-1H-pyrazol-4-yl)-phenyl]-3H-[1,2,3]triazolo[4,5-d]pyrimidin-5-ylamino}-pyrrolidin-1-yl)-propan-1-one], which IC50 [1] is on record?
Answer: < 1 µM

Question: What about the IC50 [2] of the same compound?
Answer: < 1 µM

Question: What about the IC50 [3] of the same compound?
Answer: 5 to 10 µM

Question: Which IC50 [1] does the source give for COc1ccc(-n2nnc3cnc(N[C@@H]4CC[C@@H](C(N)=O)C4)nc32)cc1 [A140, (1R,3R)-3-[3-(4-methoxy-phenyl)-3H-[1,2,3]triazolo[4,5-d]pyrimidin-5-ylamino]-cyclopentanecarboxylic acid amide] here?
Answer: < 1 µM

Question: What about the IC50 [2] of the same compound?
Answer: < 1 µM

Question: And the IC50 [3]?
Answer: 1 to 5 µM

Question: Which results are given for NC(=O)[C@H]1CC[C@@H](Nc2ncc3nnn(-c4ccc(-c5cnn(CCN6CCCC6)c5)cc4)c3n2)C1 [A216, (1S,3R)-3-(3-{4-[1-(2-pyrrolidin-1-yl-ethyl)-1H-pyrazol-4-yl]-phenyl}-3H-[1,2,3]triazolo[4,5-d]pyrimidin-5-ylamino)-cyclopentanecarboxylic acid amide]?
Answer: IC50 [1]: < 1 µM; IC50 [2]: < 1 µM; IC50 [3]: 1 to 5 µM

Question: Which results are given for COc1ccc(-n2nnc3cnc(N[C@@H]4CC[C@@H](C(=O)N5CCN(C)CC5)C4)nc32)cc1 [A241, {(1R,3R)-3-[3-(4-methoxy-phenyl)-3H-[1,2,3]triazolo[4,5-d]pyrimidin-5-ylamino]-cyclopentyl}-(4-methyl-piperazin-1-yl)-methanone]?
Answer: IC50 [1]: < 1 µM; IC50 [2]: < 1 µM; IC50 [3]: 1 to 5 µM

Question: NC(=O)[C@@H]1CC[C@@H](Nc2ncc3nnn(-c4ccc5ncccc5c4)c3n2)C1 [A190, (1R,3R)-3-(3-quinolin-6-yl-3H-[1,2,3]triazolo[4,5-d]pyrimidin-5-ylamino)-cyclopentanecarboxylic acid amide] was tested. Which IC50 [1] did it give?
Answer: < 1 µM

Question: What about the IC50 [2] of the same compound?
Answer: < 1 µM

Question: And the IC50 [3]?
Answer: 5 to 10 µM

Question: How did the IC50 [1] turn out when Cc1ccc2cc(-n3nnc4cnc(N[C@@H]5CC[C@@H](O)C5)nc43)ccc2n1 (relative stereo) [A202, (trans)-3-[3-(2-methyl-quinolin-6-yl)-3H-[1,2,3]triazolo[4,5-d]pyrimidin-5-ylamino]-cyclopentanol] was run?
Answer: < 1 µM

Question: And the IC50 [2]?
Answer: < 1 µM

Question: And the IC50 [3]?
Answer: 1 to 5 µM

Question: Which IC50 [1] does the source give for N#CCCn1cc(-c2ccc(-n3nnc4cnc(N[C@@H]5CC[C@@H](O)C5)nc43)cc2)cn1 (relative stereo) [A214, 3-(4-{4-[5-(trans-3-hydroxy-cyclopentylamino)-[1,2,3]triazolo[4,5-d]pyrimidin-3-yl]-phenyl}-pyrazol-1-yl)-propionitrile] here?
Answer: < 1 µM

Question: And the IC50 [2]?
Answer: < 1 µM

Question: And the IC50 [3]?
Answer: 1 to 5 µM

Question: COc1ccc(-n2nnc3cnc(N[C@@H]4CC[C@@H](CO)C4)nc32)cc1 [A114, {(1R,3R)-3-[3-(4-methoxy-phenyl)-3H-[1,2,3]triazolo[4,5-d]pyrimidin-5-ylamino]-cyclopentyl}-methanol] was tested. Which IC50 [1] did it give?
Answer: < 1 µM

Question: What about the IC50 [2] of the same compound?
Answer: < 1 µM

Question: And the IC50 [3]?
Answer: 1 to 5 µM

Question: What does the source list for Cn1cc(-c2ccc(-n3nnc4cnc(N[C@H]5CC[C@H](N)CC5)nc43)cc2)cn1 [A129, N-{3-[4-(1-methyl-1H-pyrazol-4-yl)-phenyl]-3H-[1,2,3]triazolo[4,5-d]pyrimidin-5-yl}-trans-cyclohexane-1,4-diamine]?
Answer: IC50 [1]: < 1 µM; IC50 [2]: < 1 µM; IC50 [3]: 1 to 5 µM

Question: O[C@@H]1CC[C@@H](Nc2ncc3nnn(-c4ccc(-c5cnn(CCN6CCCC6)c5)cc4)c3n2)C1 [A213, (1R,3R)-3-(3-{4-[1-(2-pyrrolidin-1-yl-ethyl)-1H-pyrazol-4-yl]-phenyl}-3H-[1,2,3]triazolo[4,5-d]pyrimidin-5-ylamino)-cyclopentanol] was tested. Which IC50 [1] did it give?
Answer: < 1 µM

Question: What about the IC50 [2] of the same compound?
Answer: < 1 µM

Question: What about the IC50 [3] of the same compound?
Answer: 1 to 5 µM

Question: What does the source list for N[C@H]1CC[C@H](Nc2ncc3nnn(-c4ccc(-c5cnn(CCn6cccn6)c5)cc4)c3n2)CC1 [A215, N-(3-{4-[1-(2-pyrazol-1-yl-ethyl)-1H-pyrazol-4-yl]-phenyl}-3H-[1,2,3]triazolo[4,5-d]pyrimidin-5-yl)-cyclohexane-1,4-diamine]?
Answer: IC50 [1]: < 1 µM; IC50 [2]: < 1 µM; IC50 [3]: 5 to 10 µM

Question: With Cc1nc2ccc(-n3nnc4cnc(N[C@@H]5CC[C@H](C(N)=O)C5)nc43)cc2o1 [A141, (1S,3R)-3-[3-(2-methyl-benzoxazol-6-yl)-3H-[1,2,3]triazolo[4,5-d]pyrimidin-5-ylamino]-cyclopentanecarboxylic acid amide] as the compound, how does the IC50 [1] read?
Answer: < 1 µM

Question: And the IC50 [2]?
Answer: < 1 µM

Question: And the IC50 [3]?
Answer: 5 to 10 µM

Question: How did the IC50 [1] turn out when CN1CCN(CCNC(=O)[C@H]2CC[C@@H](Nc3ncc4nnn(-c5ccc6ncccc6c5)c4n3)C2)CC1 [A242, (1S,3R)-3-(3-quinolin-6-yl-3H-[1,2,3]triazolo[4,5-d]pyrimidin-5-ylamino)-cyclopentanecarboxylic acid [2-(4-methyl-piperazin-1-yl)-ethyl]-amide] was run?
Answer: < 1 µM

Question: And the IC50 [2]?
Answer: < 1 µM

Question: What about the IC50 [3] of the same compound?
Answer: 1 to 5 µM

Question: For COCCn1cc(-c2ccc(-n3nnc4cnc(N[C@@H]5CC[C@@H](N)C5)nc43)cc2)cn1 [A123, (1R,3R)—N-(3-{4-[1-(2-methoxy-ethyl)-1H-pyrazol-4-yl]-phenyl}-3H-[1,2,3]triazolo[4,5-d]pyrimidin-5-yl)-cyclopentane-1,3-diamine], which IC50 [1] is on record?
Answer: < 1 µM

Question: What about the IC50 [2] of the same compound?
Answer: < 1 µM

Question: And the IC50 [3]?
Answer: < 1 µM

Question: Which IC50 [1] does the source give for NC(=O)[C@@H]1CC[C@@H](Nc2ncc3nnn(-c4ccc(-c5cnn(CCO)c5)cc4)c3n2)C1 [A255, (1R,3R)-3-(3-{4-[1-(2-hydroxy-ethyl)-1H-pyrazol-4-yl]-phenyl}-3H-[1,2,3]triazolo[4,5-d]pyridimdin-5-ylamino)-cyclopentanecarboxylic acid amide] here?
Answer: < 1 µM

Question: What about the IC50 ([2]; 10 μM ATP or Km ATP) of the same compound?
Answer: < 1 µM

Question: And the IC50 [3]?
Answer: 1 to 5 µM

Question: Which results are given for NC(=O)[C@H]1CC[C@@H](Nc2ncc3nnn(-c4ccc5ncccc5c4)c3n2)C1 [A189, (1S,3R)-3-(3-quinolin-6-yl-3H-[1,2,3]triazolo[4,5-d]pyrimidin-5-ylamino)-cyclopentanecarboxylic acid amide]?
Answer: IC50 [1]: < 1 µM; IC50 [2]: < 1 µM; IC50 [3]: 1 to 5 µM

Question: With COc1ccc(-n2nnc3cnc(N[C@@H]4CC[C@@H](C(=O)N(C)C)C4)nc32)cc1 [A243, (1R,3R)-3-[3-(4-methoxy-phenyl)-3H-[1,2,3]triazolo[4,5-d]pyrimidin-5-ylamino]-cyclo pentanecarboxylic acid dimethylamide] as the compound, how does the IC50 [1] read?
Answer: < 1 µM

Question: What about the IC50 [3] of the same compound?
Answer: 1 to 5 µM

Question: Which results are given for COc1ccc(-n2nnc3cnc(N[C@@H]4CC[C@H](CO)C4)nc32)cc1 [A112, {(1S,3R)-3-[3-(4-methoxy-phenyl)-3H-[1,2,3]triazolo[4,5-d]pyrimidin-5-ylamino]-cyclopentyl}-methanol]?
Answer: IC50 [1]: < 1 µM; IC50 [2]: < 1 µM; IC50 [3]: 1 to 5 µM

Question: Which IC50 [1] does the source give for Cn1cc(-c2ccc(-n3nnc4cnc(N[C@@H]5CCNC5)nc43)cc2)cn1 [A116, {3-[4-(1-methyl-1H-pyrazol-4-yl)-phenyl]-3H-[1,2,3]triazolo[4,5-d]pyrimidin-5-yl}-(R)-pyrrolidin-3-yl-amine] here?
Answer: < 1 µM

Question: What about the IC50 [3] of the same compound?
Answer: 5 to 10 µM

Question: For Cc1ccc2cc(-n3nnc4cnc(N[C@@H]5CC[C@@H](O)C5)nc43)ccc2n1 [A208, (1R,3R)-3-[3-(2-methyl-quinolin-6-yl)-3H-[1,2,3]triazolo[4,5-d]pyrimidin-5-ylamino]-cyclopentanol], which IC50 [1] is on record?
Answer: < 1 µM

Question: And the IC50 [3]?
Answer: 1 to 5 µM

Question: How did the IC50 [1] turn out when COc1ccc(-n2nnc3cnc(NC4CC4)nc32)cc1 [A4, cyclopropyl-[3-(4-methoxy-phenyl)-3H-[1,2,3]triazolo[4,5-d]pyrimidin-5-yl]-amine] was run?
Answer: < 1 µM

Question: And the IC50 [3]?
Answer: < 1 µM

Question: For NC(=O)[C@@H]1CC[C@@H](Nc2ncc3nnn(-c4ccc(I)cc4)c3n2)C1 [A170, (1R,3R)-3-[3-(4-iodo-phenyl)-3H-[1,2,3]triazolo[4,5-d]pyrimidin-5-ylamino]-cyclopentanecarboxylic acid amide], which IC50 [1] is on record?
Answer: < 1 µM

Question: And the IC50 [3]?
Answer: 1 to 5 µM

Question: For COCCn1cc(-c2ccc(-n3nnc4cnc(N[C@H]5CC[C@H](N)CC5)nc43)cc2)cn1 [A52, N-(3-{4-[1-(2-methoxy-ethyl)-1H-pyrazol-4-yl]-phenyl}-3H-[1,2,3]triazolo[4,5-d]-pyrimidin-5-yl)-cyclohexane-1,4-diamine], which IC50 [1] is on record?
Answer: < 1 µM

Question: And the IC50 [3]?
Answer: 1 to 5 µM

— patent US9855268B2, “Triazolo[4,5-d]pyrimidine derivatives” (Merck Patent GmbH, priority 2013, dated 2018)
